From patent publication US20240279237A1, “FUSED BICYCLIC HETEROARYL COMPOUNDS USEFUL AS NLRP3 INHIBITORS” (Hoffmann-La Roche Inc., priority 2021, published 2024)
Where a name gives a salt, the structure may show the parent alone.

target: T1, NLRP3 (Homo sapiens, UniProt Q96P20); assay: THP-1 Cells Pyroptosis Assay; assay type: cell-based; conditions: THP-1 cells with 1.0 μg/ml LPS; compound 3 hours; nigericin 5 μM 1 hr; resazurin readout
T1 construct: Seed THP-1 cells (25,000 cells/well) containing 1.0 μg/ml LPS in 40 μl of RPMI medium; host or cells: THP-1 cells
T1 sequence (Q96P20 whole entry): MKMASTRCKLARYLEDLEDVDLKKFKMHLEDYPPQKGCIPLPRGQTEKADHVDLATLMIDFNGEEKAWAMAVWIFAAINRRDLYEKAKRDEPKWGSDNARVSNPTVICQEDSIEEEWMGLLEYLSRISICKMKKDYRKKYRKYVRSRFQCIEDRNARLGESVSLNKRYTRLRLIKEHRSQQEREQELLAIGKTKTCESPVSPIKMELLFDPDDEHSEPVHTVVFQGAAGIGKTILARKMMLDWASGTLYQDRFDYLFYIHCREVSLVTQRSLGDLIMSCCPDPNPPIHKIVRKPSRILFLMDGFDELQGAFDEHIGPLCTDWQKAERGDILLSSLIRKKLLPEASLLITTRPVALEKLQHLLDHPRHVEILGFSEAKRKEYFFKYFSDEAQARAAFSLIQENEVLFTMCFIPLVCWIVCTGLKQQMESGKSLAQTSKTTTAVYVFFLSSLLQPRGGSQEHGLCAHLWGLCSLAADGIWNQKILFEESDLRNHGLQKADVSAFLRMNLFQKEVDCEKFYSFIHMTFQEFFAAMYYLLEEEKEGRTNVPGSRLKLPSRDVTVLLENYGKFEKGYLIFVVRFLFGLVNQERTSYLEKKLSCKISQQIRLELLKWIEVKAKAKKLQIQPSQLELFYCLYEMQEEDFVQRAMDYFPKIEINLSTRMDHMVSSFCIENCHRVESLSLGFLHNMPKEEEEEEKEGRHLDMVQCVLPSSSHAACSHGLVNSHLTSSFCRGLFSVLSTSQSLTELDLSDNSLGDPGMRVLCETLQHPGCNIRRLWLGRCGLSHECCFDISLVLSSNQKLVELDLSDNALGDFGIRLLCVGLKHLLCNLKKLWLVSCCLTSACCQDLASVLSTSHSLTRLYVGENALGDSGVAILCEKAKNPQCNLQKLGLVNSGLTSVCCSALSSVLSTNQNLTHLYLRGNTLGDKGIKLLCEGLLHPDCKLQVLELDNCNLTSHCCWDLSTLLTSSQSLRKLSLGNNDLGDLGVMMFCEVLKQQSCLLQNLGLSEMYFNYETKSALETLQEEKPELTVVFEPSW
Description: The cells were routinely passaged and grown to confluency (˜10^6 cells/ml). On the day of the experiment, THP-1 cells were harvested and resuspended into RPMI medium (without FBS). The cells were then counted and viability (>90%) checked by Trypan blue (Sigma #T8154). […] To this diluted cell solution was added LPS (Sigma #L4524) to give a 1 μg/ml Final Assay Concentration (FAC). 40 μl of the final preparation was aliquoted into each well of a 96-well plate. The plate thus prepared was used for compound screening.
The following method step-by-step assay was followed for compound screening. • 1. […] Incubate for 3 hours at 37° C., 5% CO2 • 4. Add 5 μl nigericin (Sigma #N7143) (FAC 5 μM) to all wells • 5. Incubate for 1 hr at 37° C., 5% CO2 • 6. At the end of the incubation period, spin plates at 300×g for 3 mins and remove supernatant • 7. Then add 50 μl of resazurin (Sigma #R7017) (FAC 100 μM resazurin in RPMI medium without FBS) and incubate plates for a further 1-2 hours at 37° C. and 5% CO2 • 8.

Which IC50 does the source give for `CCN1CCCC(Nc2nc3nc(-c4c(O)cc(Cl)cc4COC)ccc3o2)C1` [Example 24, 5-Chloro-2-[2-[[(3R)-1-ethyl-3-piperidyl]amino]oxazolo[4,5-b]pyridin-5-yl]-3-(methoxymethyl)phenol;2,2,2-trifluoroacetic acid salt] here?
Its IC50 is 1.7 nM.

How did the IC50 turn out when `CCN1CCC[C@@H](Nc2nc3nc(-c4c(C)cc(C#N)cc4O)ccc3o2)C1` [Example 25, 4-[2-[[(3R)-1-Ethyl-3-piperidyl]amino]oxazolo[4,5-b]pyridin-5-yl]-3-hydroxy-5-methyl-benzonitrile] was run?
The IC50 was 1.6 nM.

`Cc1cc(C#N)cc(O)c1-c1ccc2oc(N[C@@H]3CCCN(C)C3)nc2n1` [Example 26, 3-Hydroxy-5-methyl-4-[2-[[(3R)-1-methyl-3-piperidyl]amino]oxazolo[4,5-b]pyridin-5-yl]benzonitrile] was tested. Which IC50 did it give?
Its IC50 is 2.8 nM.

With `CCN1C[C@@H](O)C[C@@H](Nc2nc3nc(-c4c(C)cc(C#N)cc4O)ccc3o2)C1` [Example 28, 4-[2-[[(3R,5S)-1-Ethyl-5-hydroxy-3-piperidyl]amino]oxazolo[4,5-b]pyridin-5-yl]-3-hydroxy-5-methyl-benzonitrile;formic acid salt] as the molecule, how does the IC50 read?
The IC50 was 4.6 nM.

With `CN1CCCC(Nc2nc3nc(-c4c(O)cc(C(F)(F)F)cc4C(F)F)ccc3o2)C1` [Example 30, 3-(Difluoromethyl)-2-[2-[[(3R)-1-methyl-3-piperidyl]amino]oxazolo[4,5-b]pyridin-5-yl]-5-(trifluoromethyl)phenol;2,2,2-trifluoroacetic acid salt] as the molecule, how does the IC50 read?
Its IC50 is 4.5 nM.

For `CCN1CCC[C@@H](Nc2nc3nc(-c4c(O)cc(C(F)(F)F)cc4OC)ccc3o2)C1` [Example 31, 2-[2-[[(3R)-1-Ethyl-3-piperidyl]amino]oxazolo[4,5-b]pyridin-5-yl]-3-methoxy-5-(trifluoromethyl)phenol;2,2,2-trifluoroacetic acid salt], which IC50 is on record?
The IC50 was 4 nM.

How did the IC50 turn out when `Cc1cc(C(F)(F)F)cc(O)c1-c1cc(C)c2oc(N[C@@H]3CCCN(C)C3)nc2n1` [Example 33, 3-Methyl-2-[7-methyl-2-[[(3R)-1-methyl-3-piperidyl]amino]oxazolo[4,5-b]pyridin-5-yl]-5-(trifluoromethyl)phenol;2,2,2-trifluoroacetic acid salt] was run?
Its IC50 is 5.8 nM.

`COc1cc(C)c(-c2ccc3oc(N[C@@H]4CCCN(C)C4)nc3n2)c(O)c1` [Example 34, 5-Methoxy-3-methyl-2-[2-[[(3R)-1-methyl-3-piperidyl]amino]oxazolo[4,5-b]pyridin-5-yl]phenol] was tested. Which IC50 did it give?
The IC50 was 18.9 nM.

`CCN1CCC[C@@H](Nc2nc3nc(-c4ccc5c(c4O)CCO5)c(C)cc3o2)C1` [Example 35, 5-[2-[[(3R)-1-Ethyl-3-piperidyl]amino]-6-methyl-oxazolo[4,5-b]pyridin-5-yl]-2,3-dihydrobenzofuran-4-ol] was tested. Which IC50 did it give?
The IC50 was 27.3 nM.

For `Cc1cc(C2CC2)cc(O)c1-c1ccc2oc(N[C@@H]3CCCN(C)C3)nc2n1` [Example 36, 5-Cyclopropyl-3-methyl-2-[2-[[(3R)-1-methyl-3-piperidyl]amino]oxazolo[4,5-b]pyridin-5-yl]phenol], which IC50 is on record?
The IC50 was 32 nM.

How did the IC50 turn out when `Cc1cc(Cl)cc(O)c1-c1ccc2oc(N3CCOC4CCN(C)CC43)nc2n1` (stereo not shown) [Example 42, 5-Chloro-3-methyl-2-[2-(6-methyl-3,4a,5,7,8,8a-hexahydro-2H-pyrido[4,3-b][1,4]oxazin-4-yl)oxazolo[4,5-b]pyridin-5-yl]phenol] was run?
The IC50 was 5.1 nM.

For `Cc1cc(C(F)(F)F)cc(O)c1-c1ccc2oc(NCC34CC(CN3)C4)nc2n1` [Example 43, 2-[2-(2-Azabicyclo[2.1.1]hexan-1-ylmethylamino)oxazolo[4,5-b]pyridin-5-yl]-3-methyl-5-(trifluoromethyl)phenol;dihydrochloride], which IC50 is on record?
Its IC50 is 30.5 nM.

For `Cc1cc(Cl)cc(O)c1-c1ccc2oc(N[C@@H]3CCCN(C)C3)nc2n1` [Example 44, 5-Chloro-3-methyl-2-[2-[[(3R)-1-methyl-3-piperidyl]amino]oxazolo[4,5-b]pyridin-5-yl]phenol], which IC50 is on record?
Its IC50 is 0.7 nM.

Which IC50 does the source give for `CCN1CCC[C@@H](Nc2nc3nc(-c4c(C)cc(F)cc4O)ccc3o2)C1` [Example 45, 2-[2-[[(3R)-1-Ethyl-3-piperidyl]amino]oxazolo[4,5-b]pyridin-5-yl]-5-fluoro-3-methyl-phenol] here?
The IC50 was 0.9 nM.

For `CCCN1CCC[C@@H](Nc2nc3nc(-c4c(C)cc(Cl)cc4O)ccc3o2)C1` [Example 46, 5-Chloro-3-methyl-2-[2-[[(3R)-1-propyl-3-piperidyl]amino]oxazolo[4,5-b]pyridin-5-yl]phenol], which IC50 is on record?
Its IC50 is 1 nM.

For `Cc1cc(Cl)cc(O)c1-c1ccc2oc(N[C@@H]3CCCN(C4CCC4)C3)nc2n1` [Example 47, 5-Chloro-2-[2-[[(3R)-1-cyclobutyl-3-piperidyl]amino]oxazolo[4,5-b]pyridin-5-yl]-3-methyl-phenol], which IC50 is on record?
Its IC50 is 1.2 nM.

Which IC50 does the source give for `CCN1CCC[C@@H](Nc2nc3nc(-c4c(C)cc5c(c4O)CCO5)ccc3o2)C1` [Example 48, 5-[2-[[(3R)-1-Ethyl-3-piperidyl]amino]oxazolo[4,5-b]pyridin-5-yl]-6-methyl-2,3-dihydrobenzofuran-4-ol] here?
The IC50 was 1.2 nM.

With `Cc1cc(Cl)cc(O)c1-c1ccc2oc(N[C@@H]3C[C@H](O)CN(C)C3)nc2n1` [Example 49, (3S,5R)-5-[[5-(4-Chloro-2-hydroxy-6-methyl-phenyl)oxazolo[4,5-b]pyridin-2-yl]amino]-1-methyl-piperidin-3-ol] as the molecule, how does the IC50 read?
Its IC50 is 1.6 nM.

How did the IC50 turn out when `Cc1cc(F)cc(O)c1-c1ccc2oc(N[C@@H]3CCCN(C)C3)nc2n1` [Example 50, 5-Fluoro-3-methyl-2-[2-[[(3R)-1-methyl-3-piperidyl]amino]oxazolo[4,5-b]pyridin-5-yl]phenol] was run?
Its IC50 is 1.7 nM.

`CCN1C[C@@H](O)C[C@@H](Nc2nc3nc(-c4c(C)cc(C(F)(F)F)cc4O)ccc3o2)C1` [Example 51, (3S,5R)-1-Ethyl-5-[[5-[2-hydroxy-6-methyl-4-(trifluoromethyl)phenyl]oxazolo[4,5-b]pyridin-2-yl]amino]piperidin-3-ol] was tested. Which IC50 did it give?
The IC50 was 1.8 nM.

How did the IC50 turn out when `Cc1cc(C(F)(F)F)cc(O)c1-c1ccc2oc(N[C@@H]3CCCN(CCO)C3)nc2n1` [Example 52, 2-[2-[[(3R)-1-(2-Hydroxyethyl)-3-piperidyl]amino]oxazolo[4,5-b]pyridin-5-yl]-3-methyl-5-(trifluoromethyl)phenol] was run?
Its IC50 is 2.3 nM.

For `CCN1CCC[C@@H](Nc2nc3nc(-c4c(O)cc(C(F)(F)F)cc4F)ccc3o2)C1` [Example 53, 2-[2-[[(3R)-1-Ethyl-3-piperidyl]amino]oxazolo[4,5-b]pyridin-5-yl]-3-fluoro-5-(trifluoromethyl)phenol], which IC50 is on record?
The IC50 was 2.6 nM.

How did the IC50 turn out when `CCN1C[C@@H](F)C[C@@H](Nc2nc3nc(-c4c(C)cc(Cl)cc4O)ccc3o2)C1` [Example 54, 5-Chloro-2-[2-[[(3R,5S)-1-ethyl-5-fluoro-3-piperidyl]amino]oxazolo[4,5-b]pyridin-5-yl]-3-methyl-phenol] was run?
The IC50 was 10.1 nM.

With `Cc1cc(C(F)(F)F)cc(O)c1-c1ccc2oc(N[C@@H]3C[C@H]3N(C)C)nc2n1` [Example 55, 2-[2-[[(1R,2R)-2-(Dimethylamino)cyclopropyl]amino]oxazolo[4,5-b]pyridin-5-yl]-3-methyl-5-(trifluoromethyl)phenol] as the molecule, how does the IC50 read?
Its IC50 is 17.8 nM.

With `Cc1cc(C#N)cc(O)c1-c1ccc2oc(N[C@@H]3C[C@H](O)CN(C)C3)nc2n1` [Example 56, 3-Hydroxy-4-[2-[[(3R,5S)-5-hydroxy-1-methyl-3-piperidyl]amino]oxazolo[4,5-b]pyridin-5-yl]-5-methyl-benzonitrile] as the molecule, how does the IC50 read?
The IC50 was 18.9 nM.

`Cc1cc(C(F)(F)F)cc(O)c1-c1ccc2oc(NC[C@H]3C[C@@](C)(O)C3)nc2n1` [Example 57, cis-2-[2-[(3-Hydroxy-3-methyl-cyclobutyl)methylamino]oxazolo[4,5-b]pyridin-5-yl]-3-methyl-5-(trifluoromethyl)phenol] was tested. Which IC50 did it give?
Its IC50 is 50.3 nM.

For `Cc1cc(C(F)(F)F)cc(O)c1-c1ccc2oc(NC[C@H]3C[C@](C)(O)C3)nc2n1` [Example 58, trans-2-[2-[(3-hydroxy-3-methyl-cyclobutyl)methylamino]oxazolo[4,5-b]pyridin-5-yl]-3-methyl-5-(trifluoromethyl)phenol], which IC50 is on record?
Its IC50 is 95.9 nM.

Which IC50 does the source give for `CCN1CC(CNc2nc3nc(-c4c(C)cc(Cl)cc4O)ccc3o2)C1` [Example 59, 5-Chloro-2-[2-[(1-ethylazetidin-3-yl)methylamino]oxazolo[4,5-b]pyridin-5-yl]-3-methyl-phenol] here?
Its IC50 is 30.1 nM.

Which IC50 does the source give for `Cc1cc(C(F)(F)F)cc(O)c1-c1ccc2oc(N[C@@H]3CCCN(C4CC(O)C4)C3)nc2n1` (stereo partly drawn) [Example 61, 2-[2-[[(3R)-1-(3-hydroxycyclobutyl)-3-piperidyl]amino]oxazolo[4,5-b]pyridin-5-yl]-3-methyl-5-(trifluoromethyl)phenol] here?
Its IC50 is 39.4 nM.

Which IC50 does the source give for `Cc1cc(C(F)(F)F)cc(O)c1-c1ccc2oc(N3CC4COCC4C3)nc2n1` (stereo not shown) [Example 62, 2-[2-(1,3,3a,4,6,6a-Hexahydrofuro[3,4-c]pyrrol-5-yl)oxazolo[4,5-b]pyridin-5-yl]-3-methyl-5-(trifluoromethyl)phenol] here?
The IC50 was 84.8 nM.

For `Cc1cc(Cl)cc(O)c1-c1ccc2oc(N[C@@H]3CCCN(C4COC4)C3)nc2n1` [Example 63, 5-Chloro-3-methyl-2-[2-[[(3R)-1-(oxetan-3-yl)-3-piperidyl]amino]oxazolo[4,5-b]pyridin-5-yl]phenol], which IC50 is on record?
The IC50 was 57.5 nM.
